For one data set, the target named is GLP-1R (Homo sapiens, UniProt P43220). In words: GLP-1R activation: cAMP increase in CHO cells stably expressing GLP-1R. It is filed as cell-based. Conditions: read-out: EC50.
Data set [1] in a line: Microsomal stability, human liver microsomes (predicted hepatic clearance). Conditions: predicted from in vitro microsomal stability data.
Where [2] appears, read: cAMP increase, CHO cells stably expressing GLP-1R, 10 point dose response, 30 minutes incubation.

Here are results for 19 molecules from patent publication US11702404B2, “GLP-1R modulating compounds” (priority 2019, dated 2023).

pEC50: −log10 of the molar value. Where two headings read alike, the source gives them in different places.

Sequence of GLP-1R (P43220 24-463): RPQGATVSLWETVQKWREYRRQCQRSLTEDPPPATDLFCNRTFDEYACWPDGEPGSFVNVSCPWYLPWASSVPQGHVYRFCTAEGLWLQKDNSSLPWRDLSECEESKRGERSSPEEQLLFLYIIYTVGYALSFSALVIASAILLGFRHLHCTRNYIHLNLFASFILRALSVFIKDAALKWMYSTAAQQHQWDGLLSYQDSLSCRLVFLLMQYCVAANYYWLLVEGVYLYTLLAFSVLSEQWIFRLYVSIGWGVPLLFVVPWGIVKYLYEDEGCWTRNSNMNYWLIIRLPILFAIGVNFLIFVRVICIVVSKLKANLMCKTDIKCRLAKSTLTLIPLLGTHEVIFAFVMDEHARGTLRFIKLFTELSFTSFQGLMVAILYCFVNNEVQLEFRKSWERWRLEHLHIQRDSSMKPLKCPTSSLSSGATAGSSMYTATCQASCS

As for `COCCn1c(Cc2cc(F)c(-c3cccc(OCc4ccc(C#N)cc4F)n3)cc2F)nc2cc(C)c(C(=O)O)cc21` [Example 926, 2-(4-(6-((4-cyano-2-fluorobenzyl)oxy)pyridin-2-yl)-2,5-difluorobenzyl)-1-(2-methoxyethyl)-5-methyl-1H-benzo[d]imidazole-6-carboxylic acid], on GLP-1R (setting [2]), the negative-log EC50 (pEC50) is 7.93. Further, in data set [1], the “Predicted Hepatic Clearance (Pred. Cl.)” value is recorded as 0.11 L/h/kg.

Regarding `N#Cc1ccc(COc2cccc(-c3cc(F)c(Cc4nc5ccc(C(=O)O)cc5n4CC4CC5CCN4CC5)cc3F)n2)c(F)c1` (centres unmarked) [Example 740], the negative logarithm of the EC50 (pEC50) on GLP-1R is 5.93. Besides, in data set [1], the “Predicted Hepatic Clearance (Pred. Cl.)” value was 0.13 L/h/kg.

With `N#CCC1(Cn2c(Cc3cc(F)c(-c4cccc(OCc5ccc(C(F)F)cc5F)n4)cc3F)nc3ccc(C(=O)O)cc32)CC1` [Example 718], the pEC50 at GLP-1R (setting [2]) is 10.30. In data set [1], the “Predicted Hepatic Clearance (Pred. Cl.)” value was 0.11 L/h/kg.

`CO[C@H]1COC[C@H]1n1c(Cc2cc(F)c(-c3cccc(OCc4ccc(C#N)cc4F)n3)cc2F)nc2ccc(C(=O)O)cc21` (single isomer, unassigned) [Example 890, 2-(4-(6-((4-cyano-2-fluorobenzyl)oxy)pyridin-2-yl)-2,5-difluorobenzyl)-1-(cis-4-methoxytetrahydrofuran-3-yl)-1H-benzo[d]imidazole-6-carboxylic acid]: the pEC50 on GLP-1R (setting [2]) is 9.31. Also, in data set [1], the “Predicted Hepatic Clearance (Pred. Cl.)” value is 0.31 L/h/kg.

Take `COCCn1c(Cc2ccc(-c3cccc(OCc4ccc(C#N)cc4F)n3)cc2C#CC2CC(F)(F)C2)nc2ccc(C(=O)O)cc21` [Example 228, 2-(4-(6-((4-cyano-2-fluorobenzyl)oxy)pyridin-2-yl)-2-((3,3-difluorocyclobutyl)ethynyl)benzyl)-1-(2-methoxyethyl)-1H-benzo[d]imidazole-6-carboxylic acid]: on GLP-1R (setting [2]), the pEC50 is 8.31. In data set [1], the “Predicted Hepatic Clearance (Pred. Cl.)” value is given as 0.29 L/h/kg.

As for `N#CCC1(Cn2c(Cc3ccc(-c4ccnc(OCc5ccc(C#N)cc5F)n4)c(F)c3)nc3ccc(C(=O)O)cc32)CC1` [Example 281, 2-(4-(2-((4-cyano-2-fluorobenzyl)oxy)pyrimidin-4-yl)-3-fluorobenzyl)-1-((1-(cyanomethyl)cyclopropyl)methyl)-1H-benzo[d]imidazole-6-carboxylic acid], the pEC50 on GLP-1R (setting [2]) was 8.64. The “Predicted Hepatic Clearance (Pred. Cl.)” value in data set [1] was 0.4 L/h/kg.

As to `N#Cc1ccc(COc2cccc(-c3cc(F)c(Cc4nc5c(F)cc(C(=O)O)cc5n4CCOC(F)F)cc3F)n2)c(F)c1` [Example 892], at GLP-1R (setting [2]), the pEC50 is 9.11. Also, the “Predicted Hepatic Clearance (Pred. Cl.)” value in data set [1] is reported as 0.33 L/h/kg.

`C[C@@H](C1CC1)n1c(Cc2ccc(-c3cccc(OCc4ccc(C#N)cc4F)n3)cc2F)nc2ccc(C(=O)O)cc21` [Example 220, (S)-2-(4-(6-((4-cyano-2-fluorobenzyl)oxy)pyridin-2-yl)-2-fluorobenzyl)-1-(1-cyclopropylethyl)-1H-benzo[d]imidazole-6-carboxylic acid]: the pEC50 at GLP-1R (setting [2]) is 7.42. Further, the “Predicted Hepatic Clearance (Pred. Cl.)” value in data set [1] is reported as 0.39 L/h/kg.

With `O=C(O)c1cc(F)c2nc(Cc3cc(F)c(-c4ccc(F)c(OCc5ccc(C(F)F)cc5F)n4)cc3F)n(C[C@@H]3CCO3)c2c1` [Example 767], the pEC50 on GLP-1R (setting [2]) was 9.29. For the same molecule, in data set [1], the “Predicted Hepatic Clearance (Pred. Cl.)” value was 0.11 L/h/kg.

Take `COCCn1c(Cc2cc(F)c(-c3cccc(OCc4ccc(Cl)nc4C)n3)cc2F)nc2ccc(C(=O)O)cc21` [Example 821]: the pEC50 on GLP-1R (setting [2]) was 7.83. In addition, in data set [1], the “Predicted Hepatic Clearance (Pred. Cl.)” value is on record as 0.16 L/h/kg.

Turning to `O=C(O)c1cc(F)c2nc(Cc3cc(F)c(-c4cccc(OCc5ccc(Cl)nc5)n4)cc3F)n(C[C@@H]3CCO3)c2c1` [Example 658], the pEC50 on GLP-1R (setting [2]) is 9.96. The “Predicted Hepatic Clearance (Pred. Cl.)” value in data set [1] is given as 0.18 L/h/kg.

As to `N#Cc1ccc(COc2nccc(-c3ccc(Cc4nc5ccc(C(=O)O)cc5n4CC4(CF)CC4)c(F)c3)n2)c(F)c1` [Example 344, 2-(4-(2-((4-cyano-2-fluorobenzyl)oxy)pyrimidin-4-yl)-2-fluorobenzyl)-1-((1-(fluoromethyl)cyclopropyl)methyl)-1H-benzo[d]imidazole-6-carboxylic acid], the negative-log EC50 (pEC50) on GLP-1R (setting [2]) was 8.81. Also, the “Predicted Hepatic Clearance (Pred. Cl.)” value in data set [1] is less than 0.11 L/h/kg.

As for `N#Cc1ccc(COc2cccc(-c3ccc(Cc4nc5c(F)cc(C(=O)O)cc5n4C[C@@H]4CCO4)c(F)c3)n2)c(F)c1` [Example 455, (S)-2-(4-(6-((4-cyano-2-fluorobenzyl)oxy)pyridin-2-yl)-2-fluorobenzyl)-4-fluoro-1-(oxetan-2-ylmethyl)-1H-benzo[d]imidazole-6-carboxylic acid], the pEC50 at GLP-1R (setting [2]) is 8.73. Besides, the “Predicted Hepatic Clearance (Pred. Cl.)” value in data set [1] is given as less than 0.11 L/h/kg.

Take `COCCn1c(Cc2ccc(-c3cccc(OCc4ccc(C#N)cc4F)n3)cc2-c2cccc([N+](=O)[O-])c2)nc2ccc(C(=O)O)cc21` [Example 187, 2-((5-(6-((4-cyano-2-fluorobenzyl)oxy)pyridin-2-yl)-3′-nitro-[1,1′-biphenyl]-2-yl)methyl)-1-(2-methoxyethyl)-1H-benzo[d]imidazole-6-carboxylic acid]: the pEC50 at GLP-1R (setting [2]) is 6.14. In addition, the “Predicted Hepatic Clearance (Pred. Cl.)” value in data set [1] is listed as 0.89 L/h/kg.

Turning to `N#Cc1ccc(COc2nccc(-c3cc(F)c(Cc4nc5ccc(C(=O)O)nc5n4CC4(CF)CC4)c(F)c3)n2)c(F)c1` [Example 298, 2-(4-(2-((4-cyano-2-fluorobenzyl)oxy)pyrimidin-4-yl)-2,6-difluorobenzyl)-3-((1-(fluoromethyl)cyclopropyl)methyl)-3H-imidazo[4,5-b]pyridine-5-carboxylic acid], at GLP-1R (setting [2]), the pEC50 is 8.32. In data set [1], the “Predicted Hepatic Clearance (Pred. Cl.)” value was less than 0.11 L/h/kg.

As for `COCCn1c(Cc2ccc(-c3ncc(F)c(OCc4ccc(C#N)cc4F)n3)c(F)c2F)nc2ccc(C(=O)O)cc21` [Example 169, 2-(4-(4-((4-cyano-2-fluorobenzyl)oxy)-5-fluoropyrimidin-2-yl)-2,3-difluorobenzyl)-1-(2-methoxyethyl)-1H-benzo[d]imidazole-6-carboxylic acid], the pEC50 on GLP-1R (setting [2]) was 8.37. Besides, the “Predicted Hepatic Clearance (Pred. Cl.)” value in data set [1] is listed as 0.32 L/h/kg.

`CCn1c(Cc2ccc(-c3cccc(OCc4ccc(C#N)cc4F)n3)cc2F)nc2ccc(C(=O)O)cc21` [Example 242, 2-(4-(6-((4-cyano-2-fluorobenzyl)oxy)pyridin-2-yl)-2-fluorobenzyl)-1-ethyl-1H-benzo[d]imidazole-6-carboxylic acid]: at GLP-1R (setting [2]), the pEC50 was 7.74. Besides, the “Predicted Hepatic Clearance (Pred. Cl.)” value in data set [1] is given as less than 0.11 L/h/kg.

For `COCCn1c(Cc2ccc(-c3cccc(OCc4ccc(C#N)cc4F)n3)cc2F)nc2cc(C(=O)O)ccc21` [Example 553, 2-(4-(6-((4-cyano-2-fluorobenzyl)oxy)pyridin-2-yl)-2-fluorobenzyl)-1-(2-methoxyethyl)-1H-benzo[d]imidazole-5-carboxylic acid], at GLP-1R (setting [2]), the pEC50 was 7.70. Besides, the “Predicted Hepatic Clearance (Pred. Cl.)” value in data set [1] was 0.25 L/h/kg.

Regarding `N#Cc1ccc(COc2nc(-c3ccc(Cc4nc5c(F)cc(C(=O)O)cc5n4C[C@@H]4CCO4)c(F)c3)ccc2F)c(F)c1` [Example 132, (S)-2-(4-(6-((4-cyano-2-fluorobenzyl)oxy)-5-fluoropyridin-2-yl)-2-fluorobenzyl)-4-fluoro-1-(oxetan-2-ylmethyl)-1H-benzo[d]imidazole-6-carboxylic acid], the pEC50 at GLP-1R (setting [2]) was 10.30. Also, the “Predicted Hepatic Clearance (Pred. Cl.)” value in data set [1] is 0.215 L/h/kg.
